Tests used:
[1] = Fluorescence spectrum in TE buffer of dyes selected from live cell imaging; assay type: physicochemical; details: dye 10 μM in TE buffer
Description: (§1) The fluorescence spectra data in the primary screening and selected dyes titration assay study was obtained by Gemini XS plate reader. RNA solution was prepared right before the assay experiments to avoid possible degradation and contamination. In the primary screening, 1 mg/mL RNA (type VI from torula yeast) buffer solution was used. Point scans were carried out first using five Ex/Em point sets ([…], 400/500, 450/550, 500/600, 550/650 nm). Spectra scans were then carried out for the selected dyes. Excitation wavelengths were set at 350 nm, 400 nm, 450 nm, 500 nm, and 550 nm and the emission wavelengths were scanned. RNA (16S- and 23S-ribosomal from E. coli) and DNA (salmon testes) titration experiments and quantum yield/extinction coefficient determination for the three best dyes were carried out by the plate reader as well. Excitation λmax obtained from F-2500 Hitachi Fluorophotometer was used. Absorbance wavelength was determined by SpectraMax Plus^384 absorbance plate reader. […] was chosen as standard and 480 nm was used as excitation wavelength in the scanning for quantum yield determination.

[2] = test system: RNA (Type VI from torula yeast); test: In vitro solution assay (primary screening): fluorescent emission fold change upon binding to RNA; details: dye 10 μM, RNA 500 μg/mL in TE buffer
Description: as §1
The screening strategy used in this study is illustrated in FIG. 2. Both in vitro RNA assays and live cell imaging methods were utilized in the primary screening of the dye library. Selective binding of the dye to RNA in solution was the primary criterion for selecting lead compounds for subsequent bioimaging studies, Herein, the library dyes' fluorescent emission intensity fold change upon binding to RNA was measured in solution. Dyes showing five-fold or higher emission changes in the presence of RNA were selected (Table 3). Note the dyes listed are identified by the building blocks I and II from Table 2. For example, A4 is the product made by reacting compound A from the list of Building block I and compound 4 from the list of Building block II.

[3] = test system: 3T3 cells; test: Phototoxicity test, MTS assay of irradiated cells; assay type: cell-based, mouse; details: dye 5 μM (Hoechst 1 μM), irradiated 5 minutes, 24 hours incubation
Description: Dye DMSO stock solutions were diluted by fresh medium into working concentration (5 μM). Cells were cultured in 96-well plate for 12 hours before experiments. The cell medium was exchanged with dye medium solutions. Cells were then incubated in at 37° C., in 5% CO2 for 25 minutes before being irradiated by fluorescent light using the appropriate working filter (FITC for E36 and E144; Cy3 for F22) for 5 minutes. The plates were then incubated at 37° C. in 5% CO2 The cell viability was measured by MTS assay after 5 and 24 hours following the cytotoxicity measurement procedure. Duplicated experiments have been tested.
Phototoxicity is also an important factor in evaluating applicability of new fluorescent probes for live cell imaging. […] Nevertheless, it is desirable for the new imaging probes to be as non-phototoxic as possible. To investigate the phototoxicity of the present RNA-selective compounds, cellular viability of irradiated cells using MTS assay was assessed. Cells were incubated with dyes (E36, E144, and F22) in their working concentration (5 μM), and then irradiated with the appropriate filters using the fluorescent microscope (FITC for E36 and E144; Cy3 for F22). While light exposures used for imaging experiments are generally a few seconds long at most, cells were irradiated for 5 minutes for prolonged toxicity measurement. […]

[4] = test system: 3T3 fibroblast cells, 3T3-L1 adipocyte cells, Hela cells and A549 human lung carcinoma cells; test: Secondary screening: live cell nuclear imaging properties in four cell lines; assay type: cell-based, mouse; details: dye 25 μM
Description: (§2) All cell staining imaging followed the same procedure. Generally, dyes in dry state were first dissolved in DMSO to obtain the stock solution. The stock solutions were then added directly to the cell culture wells to reach the desired concentration. Total DMSO was lower than 0.1%. After adding dyes, cells were incubated at 37° C. in 5% CO2 for 25 minutes. The medium was then removed and cells were rinsed with fresh medium twice. The cells were then imaged at ambient temperature in the medium. Exposure time was kept less than 5 seconds and adjusted to each dye.
The selected compounds from both primary screens (total 88) were resynthesized in large scale and purified. The compounds' live cell nuclear imaging properties were then tested by four cell lines, including two mouse cell lines: 3T3 fibroblast cells and 3T3-L1 adipocyte cells; and two human cancer cell lines: Hela cells and A549 human lung carcinoma cells. Herein, the final dye concentration in each test was decreased to 25 μM and all the experiments were repeated to establish reproducibility. […] Each of the three dyes contained at least one high affinity nucleic acid functional group (Trotta et al., “Solution Structure of DAPI Selectively Bound in the Minor Groove of a DNA T-T Mismatch-Containing Site: NMR and Molecular Dynamics Studies,” Nucleic Acids Res. 26:4706-4713 (1998); Loontiens et al., “Binding Characteristics of Hoechst 33258 with Calf Thymus DNA, Poly[d(A-T)], and d(CCGGAATTCCGG): Multiple Stoichiometries and Determination of Tight Binding with a Wide Spectrum of Site Affinities,” Biochem. 29:9029-9039 (1990); Zipper et al., “Investigations on DNA Intercalation and Surface Binding by SYBR Green I, Its Structure Determination and Methodological Implications,” Nucleic Acid Res. 32:E103 (2004); Glazer et al., “Stable Dye-DNA Intercalation Complexes as Reagents for High-Sensitivity Fluorescence Detection,” Nature 359:859-861 (1992), which are hereby incorporated by reference in their entirety) in building block II such as the terminal secondary amine for F22 and F112, the trimethoxy for E 144, and the indole for E36.

[5] = Fluorescent properties of free dye solution; assay type: physicochemical; details: TE buffer pH 7.5, dye 5 μM
Description: as §1, with “determination. […] Generally, the λmax (nm) of emission was determined by scanning a fixed excitation first, and the μmax (nm) of excitation was determined by scanning emission spectrum with a fixed μem (nm). The detailed fluorescent properties of three selected dyes including; excitation/emission μmax, the quantum yield and extinction coefficient of both free dye solution and dye-RNA solution were assessed (Table 5).” for “determination.”

[6] = test system: RNA (16S- and 23S-ribosomal from E. coli); test: Fluorescent properties of dye-RNA solution; assay type: binding; details: TE buffer pH 7.5, dye 5 μM, RNA 200 μg/mL
Description: as §1, with “determination. […] Generally, the λmax (nm) of emission was determined by scanning a fixed excitation first, and the μmax (nm) of excitation was determined by scanning emission spectrum with a fixed μem (nm). The detailed fluorescent properties of three selected dyes including; excitation/emission μmax, the quantum yield and extinction coefficient of both free dye solution and dye-RNA solution were assessed (Table 5).” for “determination.”

[7] = test system: Fixed-permeabilized Hela cells; test: DNase and RNase digest test; assay type: cell-based, human; details: dye 50 μM, 2 hours
Description: Cells were first fixed using cold (−4° C.) pure methanol for 1 minute at ambient temperature. The cell membrane was then permeabilized by immersion in 1% Triton X-100 for 2 minutes. After rinsing with PBS twice, 100 μL of 50 μM dye PBS solution was added to three adjacent wells. Cells were then incubated in this dye PBS solution for 15 minutes in ambient temperature before being rinsed with clean PBS twice. 100 μL clean PBS (as control experiment), 30 μg/mL DNase (Sigma), or 25 μg/mL DNase-Free RNase (GE) was added to the three adjacent wells and incubated at 37° C. in 5% CO2 for 2 hours. Cells were rinsed with clean PBS twice before imaging. For each dye test, the fluorescent images were obtained using equal exposure time for control, DNase and RNase experiments. DAPI (10 μM) in PBS and SYTO®RNASelect (5 μM) in PBS solution were used for dual staining experiments. Duplicate experiments have been tested.
To further confirm that the compounds selectively bind RNA, a deoxyribonuclease (DNase) and ribonuclease (RNase) digest test was performed. In DNase digest, only the DNAs in the cell would be hydrolyzed. By contrast, in RNase digest, only RNAs would be hydrolyzed. Fixed-permeabilized Hela cells were used in this experiment and DAPI and SYTO®RNASelect were used as control dyes (FIG. 6). […] Still, its higher RNA-selective binding in live cell might be due to the complicated in vivo live cell environment, which may preferably direct this dye to nucleoli.

[8] = test system: Hela, A549, 3T3, and 3T3-L1; test: Optimization of working concentration and imaging properties, live cell staining; assay type: cell-based, human, mouse; details: 20, 10, 5 and 1 μM tested in four cell lines
Description: as §2
In fluorescence microscopic imaging studies, it is always desirable to use as little dye as possible to stain organelles in order to maximize specificity and minimize dye toxicity and cell death. To determine the lowest working concentration of each dye, four different concentrations (20 μM, 10 μM, 5 μM, and 1 μM) were tested in four cell lines (Hela, A549, 3T3, and 3T3-L1). Dyes E36, E144, and F112 were imaged using FITC channel, and F22 was imaged using Cy3 channel. Generally, a quality fluorescence signal for each dye was produced using a concentration of 5 μM for E36, E144, and F22 and 10 μM for F112 (Table 5). It was interesting to observe that compound F22 was brighter in 3T3 cells, and a concentration of 1 μM was sufficient for a clear image (FIG. 4). […] Little photobleaching and no obvious cell morphology or viability changes were observed during the tests.

SMILES | SPECTRUM EM [1] [nm] | SPECTRUM EX [1] [nm] | also measured
CN1CCN(c2ccc3[nH]c(-c4ccc5[nH]c(-c6ccc(O)cc6)nc5c4)nc3c2)CC1 [Hoechst 33258] | – | – | Phototoxicity [3]: as toxic in 3T3 cells as F22
COc1ccc2c(ccc(/C=C/c3ccc(N(C)C)cc3[N+](=O)[O-])[n+]2C)c1 [Dye F112] | 620 | 500 | Live cell nuclear imaging properties (basis of selection) [4]: selective nucleolar targeting, high fluorescence intensity, low photobleaching, and low cellular toxicity; EM (emission λmax), Buffer [5]: 516 nm; EX (excitation λmax), Buffer [5]: 462 nm; EM (emission λmax), RNA [6]: 514 nm; EX (excitation λmax), RNA [6]: 465 nm; Fluorescence after RNase digest ([7]; 25 μg/mL DNase-Free RNase): slight stain of the nucleus; Fluorescence after DNase digest ([7]; 30 μg/mL DNase): bright nucleolar staining remained; Optimum Concentration for live cell imaging [8]: 10 µM
COc1ccc2c(ccc(/C=C/C=C/c3ccccc3OC)[n+]2C)c1 [Dye F97] | 460 | 350 | –
CCOc1cccc(C=Cc2ccc3cc(OC)ccc3[n+]2C)c1O [Dye F104] | 460 | 350 | –
COc1ccc2c(ccc(C=Cc3cc(C(C)(C)C)ccc3O)[n+]2C)c1 [Dye F73] | 490 | 400 | –
COc1ccc(Oc2cccc(/C=C/c3ccc4ccccc4[n+]3C)c2)cc1 [Dye E83] | 450 | 350 | –
C[n+]1c(/C=C/c2ccc(Br)s2)ccc2ccccc21 [Dye E77] | 470 | 350 | –
C[n+]1c(/C=C/c2ccc(-c3cccs3)s2)ccc2ccccc21 [Dye E119] | 600 | 450 | –
COc1ccc2c(ccc(/C=C/c3ccccc3OCC(=O)O)[n+]2C)c1 [Dye F116] | 520 | 400 | –

Further lines, with some results ahead:

SPECTRUM EM [1] [nm] | SPECTRUM EX [1] [nm] | SMILES | also measured
620 | 500 | COc1ccc2c(ccc(C=Cc3ccc(O)c(Br)c3)[n+]2C)c1 [Dye F158] | Em(nm) [2]: 620 nm; Ex(nm) [2]: 500 nm; Fold (fluorescent emission fold changes to RNA) [2]: 7
540 | 400 | COc1ccc2c(ccc(/C=C/c3cc(Br)ccc3OC)[n+]2C)c1 [Dye F137] | –
550 | 450 | COc1ccc2c(ccc(C=Cc3c(C)ccc4ccccc34)[n+]2C)c1 [Dye F143] | –
560 | 450 | COc1ccc2c(ccc(C=Cc3ccc(C)c4ccccc34)[n+]2C)c1 [Dye F141] | –
550 | 450 | COc1ccc2c(ccc(/C=C/c3cc(I)ccc3O)[n+]2C)c1 [Dye F120] | –
460 | 350 | COc1ccc2c(ccc(C=Cc3ccccc3N(c3ccccc3)c3ccccc3)[n+]2C)c1 [Dye F138] | –

From US7790896B2, “RNA-selective probes for live cell imaging of nuclear structure and function” (New York University, priority 2006, dated 2010)
